Structures are written as SMILES. Some results are limits rather than exact numbers.

The values below come from patent US20260193264A1, “BENZOYPARAZINE PYRAZINES AND THEIR USES” (FOGHORN THERAPEUTICS INC., priority 2022, published 2026).

In experiment [1] the target is T1, HiBiT-BRM fusion protein in stable HeLa cell line (Homo sapiens, UniProt P51531).
T1 construct: expressed in transfected cells
As to the kind of experiment: HiBiT-BRM cell-based degradation assay (Nano-Glo HiBiT Lytic Detection, 24 h). Details: DC50: scale not given here. The settings on record: HeLa HiBiT-BRM cells; for DC50: read-out: BRM HiBit Degradation IC50; for BRM HiBit Degradation Maximum (%): top dose 30 μM. The method, boiled down: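 Stable HiBiT-BRM HeLa cells treated 24 h with 10-point 3-fold dilutions, top final dose 30 μM, in duplicate. Luminescence read after lytic LgBiT reagent. Percent degradation was normalised to DMSO (high control) and 2 μM reference BRM/BRG1 degrader (low control).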

Experiment [2] concerns the target T2, HiBit-BRG1 fusion protein in stable HeLa cell line expressing HiBit-BRG1 and LgBit (Homo sapiens, UniProt P51532).
T2 construct: expressed in transfected cells
As to the kind of experiment: HiBiT-BRG1 cell-based degradation assay (Nano-Glo HiBiT, 24 h). The conditions noted are these: HeLa HiBit-BRG1/LgBit cells; for Dmax: top dose 30 μM, read-out: BRG1 HiBit Degradation Maximum (%); for DC50: read-out: BRMG1 HiBit Degradation IC50. The method, boiled down: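 Stable HeLa line co-expressing HiBiT-BRG1 and LgBiT, compound-treated 24 h; luminescence read after Nano-Glo HiBiT lytic reagent. % degradation normalised between DMSO (high control) and 2 μM reference BRM/BRG1 degrader (low control).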

T1 sequence (P51531 whole entry, the tested form may be a part): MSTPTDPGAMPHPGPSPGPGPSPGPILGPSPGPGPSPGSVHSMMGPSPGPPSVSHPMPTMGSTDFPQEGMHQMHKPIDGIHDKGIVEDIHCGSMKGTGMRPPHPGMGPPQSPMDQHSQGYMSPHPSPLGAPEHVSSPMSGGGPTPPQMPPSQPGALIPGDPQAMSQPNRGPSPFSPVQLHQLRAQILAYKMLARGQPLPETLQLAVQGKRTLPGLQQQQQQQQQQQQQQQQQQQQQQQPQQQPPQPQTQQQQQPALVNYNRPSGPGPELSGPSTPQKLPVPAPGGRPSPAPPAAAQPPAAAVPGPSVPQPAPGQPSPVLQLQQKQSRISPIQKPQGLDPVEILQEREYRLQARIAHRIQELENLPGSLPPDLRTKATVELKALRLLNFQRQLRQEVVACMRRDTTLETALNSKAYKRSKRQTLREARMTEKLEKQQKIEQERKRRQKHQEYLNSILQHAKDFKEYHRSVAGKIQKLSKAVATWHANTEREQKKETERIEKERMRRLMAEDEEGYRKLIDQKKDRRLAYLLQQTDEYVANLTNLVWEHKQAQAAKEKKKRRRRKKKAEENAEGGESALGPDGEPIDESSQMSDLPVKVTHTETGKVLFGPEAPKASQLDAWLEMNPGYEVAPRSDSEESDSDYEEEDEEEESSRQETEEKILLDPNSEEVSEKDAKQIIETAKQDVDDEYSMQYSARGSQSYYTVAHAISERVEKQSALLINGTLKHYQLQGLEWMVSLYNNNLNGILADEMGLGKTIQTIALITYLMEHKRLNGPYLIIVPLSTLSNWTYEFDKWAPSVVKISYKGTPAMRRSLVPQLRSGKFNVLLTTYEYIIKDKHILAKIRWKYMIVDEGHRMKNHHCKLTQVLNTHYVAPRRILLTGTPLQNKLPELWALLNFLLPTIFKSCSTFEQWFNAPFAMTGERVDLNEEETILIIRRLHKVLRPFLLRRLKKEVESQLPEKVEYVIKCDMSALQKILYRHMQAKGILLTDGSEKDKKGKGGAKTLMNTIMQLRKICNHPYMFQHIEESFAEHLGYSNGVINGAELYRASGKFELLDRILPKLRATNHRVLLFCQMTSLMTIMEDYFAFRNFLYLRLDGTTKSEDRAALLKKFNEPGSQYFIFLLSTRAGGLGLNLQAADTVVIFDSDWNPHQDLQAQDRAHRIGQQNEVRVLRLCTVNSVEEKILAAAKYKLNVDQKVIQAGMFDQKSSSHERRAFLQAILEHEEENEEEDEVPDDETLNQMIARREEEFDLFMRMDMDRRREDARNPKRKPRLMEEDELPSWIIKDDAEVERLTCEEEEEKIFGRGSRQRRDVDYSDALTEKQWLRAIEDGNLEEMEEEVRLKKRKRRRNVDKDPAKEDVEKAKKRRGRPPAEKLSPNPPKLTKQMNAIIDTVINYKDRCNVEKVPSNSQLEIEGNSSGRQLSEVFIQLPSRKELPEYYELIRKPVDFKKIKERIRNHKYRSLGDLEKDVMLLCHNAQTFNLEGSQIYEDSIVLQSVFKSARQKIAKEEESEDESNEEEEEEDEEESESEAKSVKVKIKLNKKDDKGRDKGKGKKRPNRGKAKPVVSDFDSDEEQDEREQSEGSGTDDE
T2 sequence (P51532 whole entry, the tested form may be a part): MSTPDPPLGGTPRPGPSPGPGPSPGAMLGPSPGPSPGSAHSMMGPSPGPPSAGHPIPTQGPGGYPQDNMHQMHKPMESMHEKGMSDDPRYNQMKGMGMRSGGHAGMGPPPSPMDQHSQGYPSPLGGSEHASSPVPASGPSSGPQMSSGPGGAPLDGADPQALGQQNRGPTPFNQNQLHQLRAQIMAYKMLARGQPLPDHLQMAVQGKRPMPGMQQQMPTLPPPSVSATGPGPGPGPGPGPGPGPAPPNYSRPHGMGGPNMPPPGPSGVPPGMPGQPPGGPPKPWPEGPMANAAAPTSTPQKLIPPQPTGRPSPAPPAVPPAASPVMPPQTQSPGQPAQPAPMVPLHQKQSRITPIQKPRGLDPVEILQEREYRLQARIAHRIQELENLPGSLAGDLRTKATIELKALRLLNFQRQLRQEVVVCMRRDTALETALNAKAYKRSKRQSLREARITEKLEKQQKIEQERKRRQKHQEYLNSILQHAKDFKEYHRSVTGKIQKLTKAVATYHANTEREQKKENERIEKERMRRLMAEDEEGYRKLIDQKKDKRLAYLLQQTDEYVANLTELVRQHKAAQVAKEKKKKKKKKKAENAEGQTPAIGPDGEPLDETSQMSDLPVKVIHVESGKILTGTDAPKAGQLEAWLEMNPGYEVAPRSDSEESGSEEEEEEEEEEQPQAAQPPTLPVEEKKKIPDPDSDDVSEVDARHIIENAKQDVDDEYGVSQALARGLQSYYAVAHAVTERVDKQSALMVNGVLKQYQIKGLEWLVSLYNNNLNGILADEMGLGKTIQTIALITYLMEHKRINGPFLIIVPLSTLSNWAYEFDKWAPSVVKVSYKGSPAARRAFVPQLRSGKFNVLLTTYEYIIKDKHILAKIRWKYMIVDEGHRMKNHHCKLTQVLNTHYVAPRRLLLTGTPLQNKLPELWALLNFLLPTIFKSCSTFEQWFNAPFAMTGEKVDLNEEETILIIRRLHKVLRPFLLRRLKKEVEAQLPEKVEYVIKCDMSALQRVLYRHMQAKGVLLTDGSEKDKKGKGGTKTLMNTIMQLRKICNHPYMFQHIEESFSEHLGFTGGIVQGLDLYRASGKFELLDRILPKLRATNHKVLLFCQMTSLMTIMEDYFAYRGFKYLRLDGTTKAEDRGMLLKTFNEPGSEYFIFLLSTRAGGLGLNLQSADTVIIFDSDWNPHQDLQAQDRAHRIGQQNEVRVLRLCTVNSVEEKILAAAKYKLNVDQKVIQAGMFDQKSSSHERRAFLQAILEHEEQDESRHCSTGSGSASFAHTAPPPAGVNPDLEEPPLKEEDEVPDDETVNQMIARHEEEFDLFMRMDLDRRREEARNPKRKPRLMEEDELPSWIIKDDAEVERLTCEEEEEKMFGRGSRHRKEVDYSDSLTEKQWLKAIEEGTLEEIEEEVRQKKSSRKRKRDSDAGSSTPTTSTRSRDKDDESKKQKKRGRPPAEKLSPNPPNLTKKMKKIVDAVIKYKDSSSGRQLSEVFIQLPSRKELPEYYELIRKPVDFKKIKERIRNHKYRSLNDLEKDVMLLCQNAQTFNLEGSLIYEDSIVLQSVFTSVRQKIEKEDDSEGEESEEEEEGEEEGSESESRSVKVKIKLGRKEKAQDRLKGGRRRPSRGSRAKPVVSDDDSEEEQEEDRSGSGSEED

Consider `COC[C@H]1CN(c2cc([C@H](C(=O)N3C[C@H](O)C[C@H]3C(=O)N[C@@H](C)c3ccc(-c4scnc4C)cc3)C(C)C)on2)CCN1c1ccc2cc(-c3ccccc3O)nnc2c1` [Compound 142, (2S,4R)-4-hydroxy-1-((R)-2-(3-((R)-4-(3-(2-hydroxyphenyl)cinnolin-7-yl)-3-(methoxymethyl)piperazin-1-yl)isoxazol-5-yl)-3-methylbutanoyl)-N-((S)-1-(4-(4-methylthiazol-5-yl)phenyl)ethyl)pyrrolidine-2-carboxamide], for which, in experiment [1], the DC50 was more than 10 nM and the “BRM HiBit Degradation Maximum (%)” value is “A (“A” indicates maximum degradation ≥75%)”. Moreover, the Dmax in experiment [2] was less than 50%.
For `Cc1ncsc1-c1ccc([C@H](C)NC(=O)[C@@H]2C[C@@H](O)CN2C(=O)C(C(C)C)n2cc(N3CCCC(CN4CCN(c5ccc6nnc(-c7ccccc7O)cc6c5)CC4)C3)nn2)cc1` (stereo partly drawn) [Compound 270, (2S,4R)-4-hydroxy-1-(2-(4-(3-((4-(3-(2-hydroxyphenyl)cinnolin-6-yl)piperazin-1-yl)methyl)piperidin-1-yl)-1H-1,2,3-triazol-1-yl)-3-methylbutanoyl)-N-((S)-1-(4-(4-methylthiazol-5-yl)phenyl)ethyl)pyrrolidine-2-carboxamide], in experiment [1], the DC50 is less than 10 nM and the “BRM HiBit Degradation Maximum (%)” value is “A (“A” indicates maximum degradation ≥75%)”. Also, in experiment [2], the DC50 is more than 10 nM and the Dmax is more than 75%.
`Cc1ncsc1-c1ccc([C@H](C)NC(=O)[C@@H]2C[C@@H](O)CN2C(=O)[C@@H](c2cc(N3CCC(N4CC(c5ccc6cc(-c7ccccc7O)nnc6c5)C4)CC3)no2)C(C)C)cc1` [Compound 10, (2S,4R)-4-hydroxy-1-((R)-2-(3-(4-(3-(3-(2-hydroxyphenyl)cinnolin-7-yl)azetidin-1-yl)piperidin-1-yl)isoxazol-5-yl)-3-methylbutanoyl)-N-((S)-1-(4-(4-methylthiazol-5-yl)phenyl)ethyl)pyrrolidine-2-carboxamide]: in experiment [1], the DC50 was more than 10 nM and the “BRM HiBit Degradation Maximum (%)” value was “A (“A” indicates maximum degradation ≥75%)”. In experiment [2], the Dmax is less than 50%.
With `Cc1ncsc1-c1ccc([C@H](C)NC(=O)[C@@H]2C[C@@H](O)CN2C(=O)[C@H](C(C)C)n2cc(-c3ccc4nnc(-c5ccccc5O)cc4c3C)nn2)cc1` [Compound 203, (2S,4R)-4-hydroxy-1-((S)-2-(4-(3-(2-hydroxyphenyl)-5-methylcinnolin-6-yl)-1H-1,2,3-triazol-1-yl)-3-methylbutanoyl)-N-((S)-1-(4-(4-methylthiazol-5-yl)phenyl)ethyl)pyrrolidine-2-carboxamide], in experiment [1], the DC50 is more than 10 nM and the “BRM HiBit Degradation Maximum (%)” value is reported as “A (“A” indicates maximum degradation ≥75%)”. Further, the Dmax in experiment [2] is less than 50%.
With `CC(C)[C@@H](C(=O)N1C[C@H](O)C[C@H]1C(=O)N[C@@H](C)c1ccc(F)cc1)c1cc(-c2ccc3nnc(-c4ccccc4O)cc3c2)no1` [Compound 134, (2S,4R)-N-((S)-1-(4-fluorophenyl)ethyl)-4-hydroxy-1-((R)-2-(3-(3-(2-hydroxyphenyl)cinnolin-6-yl)isoxazol-5-yl)-3-methylbutanoyl)pyrrolidine-2-carboxamide], in experiment [1], the DC50 is less than 10 nM and the “BRM HiBit Degradation Maximum (%)” value was “A (“A” indicates maximum degradation ≥75%)”. Also, in experiment [2], the DC50 was more than 10 nM and the Dmax is more than 75%.
As to `Cc1ncsc1-c1ccc([C@H](C)NC(=O)[C@@H]2C[C@@H](O)CN2C(=O)[C@@H](c2cc(N3CCC4(CC3)CN(c3ccc5cc(-c6ccccc6O)nnc5c3)C4)no2)C(C)C)cc1` [Compound 53, (2S,4R)-4-hydroxy-1-((R)-2-(3-(2-(3-(2-hydroxyphenyl)cinnolin-7-yl)-2,7-diazaspiro[3.5]nonan-7-yl)isoxazol-5-yl)-3-methylbutanoyl)-N-((S)-1-(4-(4-methylthiazol-5-yl)phenyl)ethyl)pyrrolidine-2-carboxamide], in experiment [1], the DC50 is less than 10 nM and the “BRM HiBit Degradation Maximum (%)” value is recorded as “A (“A” indicates maximum degradation ≥75%)”. For the same compound, in experiment [2], the DC50 was more than 10 nM and the Dmax is more than 50%.
As to `Cc1ncsc1-c1ccc([C@H](C)NC(=O)[C@@H]2C[C@@H](O)CN2C(=O)[C@H](c2cc(-c3ccnc(N4CCC(c5ccc6nnc(-c7ccccc7O)cc6c5)CC4)n3)no2)C(C)C)cc1` [Compound 37], the “BRM HiBit Degradation Maximum (%)” value in experiment [1] is reported as “C (“C” indicates maximum degradation <50%)”. For the same compound, the Dmax in experiment [2] is less than 50%.
For `Cc1ncsc1-c1ccc([C@H](C)NC(=O)[C@@H]2C[C@@H](O)CN2C(=O)[C@@H](c2cc(N3CC4(C3)CN(c3cc5cc(-c6ccccc6O)nnc5cc3C3CC3)C4)no2)C(C)C)cc1` [Compound 152, (2S,4R)-1-((R)-2-(3-(6-(7-cyclopropyl-3-(2-hydroxyphenyl)cinnolin-6-yl)-2,6-diazaspiro[3.3]heptan-2-yl)isoxazol-5-yl)-3-methylbutanoyl)-4-hydroxy-N-((S)-1-(4-(4-methylthiazol-5-yl)phenyl)ethyl)pyrrolidine-2-carboxamide], in experiment [1], the DC50 was less than 10 nM and the “BRM HiBit Degradation Maximum (%)” value is “A (“A” indicates maximum degradation ≥75%)”. Besides, in experiment [2], the DC50 was less than 10 nM and the Dmax is more than 75%.
With `CC(C)[C@@H](C(=O)N1C[C@H](O)C[C@H]1C(=O)N[C@@H](C)c1ccc(F)cc1)c1cc(N2CC3(CC(c4cc5nnc(-c6ccccc6O)cc5cc4C(F)F)C3)C2)no1` [Compound 283], in experiment [1], the DC50 was less than 10 nM and the “BRM HiBit Degradation Maximum (%)” value is “A (“A” indicates maximum degradation ≥75%)”. Moreover, the Dmax in experiment [2] was less than 50%.
As to `Cc1ncsc1-c1ccc([C@H](C)NC(=O)[C@@H]2C[C@@H](O)CN2C(=O)[C@@H](c2cc(N3CC4(C3)CN(c3cc5nnc(-c6ccccc6O)cc5cc3OC3CC3)C4)no2)C(C)C)cc1` [Compound 253, (2S,4R)-1-((R)-2-(3-(6-(6-cyclopropoxy-3-(2-hydroxyphenyl)cinnolin-7-yl)-2,6-diazaspiro[3.3]heptan-2-yl)isoxazol-5-yl)-3-methylbutanoyl)-4-hydroxy-N-((S)-1-(4-(4-methylthiazol-5-yl)phenyl)ethyl)pyrrolidine-2-carboxamide], in experiment [1], the DC50 is less than 10 nM and the “BRM HiBit Degradation Maximum (%)” value is “A (“A” indicates maximum degradation ≥75%)”. In experiment [2], the DC50 is less than 10 nM and the Dmax was more than 75%.
For `C#Cc1ccc(CNC(=O)[C@@H]2C[C@@H](O)CN2C(=O)[C@H](C(C)C)n2cc(N3CC4(CN(c5ccc6cc(-c7ccccc7O)nnc6c5)C4)C3)nn2)c(OC)c1` [Compound 238, (2S,4R)-N-(4-ethynyl-2-methoxybenzyl)-4-hydroxy-1-((S)-2-(4-(6-(3-(2-hydroxyphenyl)cinnolin-7-yl)-2,6-diazaspiro[3.3]heptan-2-yl)-1H-1,2,3-triazol-1-yl)-3-methylbutanoyl)pyrrolidine-2-carboxamide], in experiment [1], the DC50 was less than 10 nM and the “BRM HiBit Degradation Maximum (%)” value was “A (“A” indicates maximum degradation ≥75%)”. Moreover, the Dmax in experiment [2] is less than 50%.
